We go through 7 compounds from ChEMBL document CHEMBL1201862, “PubChem BioAssay data set” (2004).

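Five concentrations, 48 hours, 96-well plates. The concentration for 50% growth inhibition is given as GI50.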 Calls of active or inactive are those of the source. Rule as the data show it: active = GI50 up to about 1.1 µM and inactive = higher.

Some test systems named below: BT-549; CCRF-CEM; DLD-1; DMS-273; HCC 2998; HCT-116; HCT-15; HOP-62; HT-29; IGROV-1; MDA-MB-231; MDA-MB-435; NCI-H23; NCI-H522; NCI/ADR-RES; OVCAR-3; OVCAR-4; OVCAR-5; RPMI-8226; SNB-19.
Test in all cases: inhibition of tumour cell growth, NCI panel, 48 h

As for `CN(N=O)C(=O)N[C@H]1C(O)O[C@H](CO)[C@@H](O)[C@@H]1O` (stereo not given in full), the GI50 is > 750 µM (inactive) in the experiment on BT-549; 485 µM (inactive) in the experiment with CCRF-CEM; 632 µM (inactive) in the experiment with DLD-1; 528 µM (inactive) in the experiment on DMS-273; 533 µM (inactive) in the experiment on HCC 2998; 573 µM (inactive) in the experiment with HCT-116. For the same compound, the GI50 in the experiment with HCT-15 is 622 µM; with HOP-62 it was 568 µM (inactive); in the experiment on HT-29 it was 618 µM (inactive); in the experiment on IGROV-1, 618 µM (inactive); with MDA-MB-231 it was > 750 µM (inactive); in the experiment on MDA-MB-435, 515 µM (inactive). Also, the GI50 was 614 µM (inactive) in the experiment on NCI-H23; 578 µM (inactive) in the experiment with NCI-H522; 740 µM (inactive) with NCI/ADR-RES; 653 µM (inactive) in the experiment on OVCAR-3; 590 µM (inactive) in the experiment on OVCAR-4; 647 µM (inactive) with OVCAR-5. Moreover, the GI50 in the experiment with RPMI-8226 and with SNB-19 was 565 µM (inactive) throughout.

In the case of `Cc1cc(C)c(-n2c(-c3ccc(Br)cc3)cs/c2=N\N=C2C=C(C(C)(C)C)C(=O)C(C(C)(C)C)=C2)c(C)c1`, the GI50 in the experiment on BT-549 was > 100 µM (inactive); in the experiment on CCRF-CEM, > 100 µM (inactive); in the experiment on DLD-1 it was > 100 µM (inactive); in the experiment with DMS-273 it was > 100 µM (inactive); in the experiment with HCC 2998 it was > 100 µM (inactive); in the experiment with HCT-116 it was > 76 µM (inactive). Further, the GI50 in the experiment on HCT-15 was greater than 100 µM; in the experiment on HOP-62, 32.7 µM (inactive); in the experiment with HT-29, > 100 µM (inactive); with IGROV-1, > 63.7 µM (inactive); in the experiment on MDA-MB-231, 55.3 µM (inactive); in the experiment on MDA-MB-435 it was > 100 µM (inactive). In addition, the GI50 with NCI-H23, in the experiment on NCI-H522, with NCI/ADR-RES, in the experiment on OVCAR-3, in the experiment with OVCAR-4 and in the experiment on OVCAR-5 was > 100 µM (inactive) each time. Moreover, the GI50 is > 100 µM (inactive) in the experiment with RPMI-8226 and 76.2 µM (inactive) in the experiment with SNB-19.

In the case of `O=C(/C=C/c1ccccc1)c1ccc(NCc2nc3ccccc3[nH]2)cc1`, the GI50 with CCRF-CEM is 2.48 µM (inactive); with DLD-1 it was 4.27 µM (inactive); in the experiment on DMS-273 it was 4.5 µM (inactive); in the experiment with HCC 2998, 2.12 µM (inactive); in the experiment on HCT-116, 3.22 µM (inactive); in the experiment with HCT-15 it was 4.11 µM. Besides, the GI50 with HOP-62 is 11.2 µM (inactive); in the experiment on HT-29 it was 2.58 µM (inactive); with IGROV-1 it was 6.56 µM (inactive); with NCI-H23 it was 2.55 µM (inactive); with NCI-H522, 4.14 µM (inactive); with OVCAR-3 it was 2.8 µM (inactive). The GI50 is 9.23 µM (inactive) in the experiment with OVCAR-4, 10.8 µM (inactive) in the experiment with OVCAR-5, 2.29 µM (inactive) in the experiment on RPMI-8226 and 6.1 µM (inactive) with SNB-19.

For `CC(C)CS(=O)(=O)/C(=C(\c1ccc(Br)cc1)S(=O)(=O)CC(C)C)c1ccc(Br)cc1`, the GI50 in the experiment with CCRF-CEM is > 100 µM (inactive); in the experiment with DLD-1, > 100 µM (inactive); in the experiment with DMS-273, > 100 µM (inactive); in the experiment with HCC 2998 it was > 100 µM (inactive); with HCT-116 it was > 100 µM (inactive); in the experiment with HCT-15, greater than 100 µM. Besides, the GI50 in the experiment on HOP-62 is > 100 µM (inactive); in the experiment with HT-29, > 100 µM (inactive); in the experiment with IGROV-1 it was 15.6 µM (inactive); in the experiment on NCI-H23 it was > 100 µM (inactive); with NCI-H522, > 100 µM (inactive); in the experiment on OVCAR-3, > 100 µM (inactive). The GI50 with OVCAR-4, in the experiment with OVCAR-5, with RPMI-8226 and with SNB-19 was > 100 µM (inactive) in each case.

Regarding `N#Cc1c(-c2ccco2)cc(-c2ccc(NCc3nc4ccccc4[nH]3)cc2)nc1N`, the GI50 with CCRF-CEM is 27.4 µM (inactive); in the experiment with DLD-1, 28.8 µM (inactive); with DMS-273, 18 µM (inactive); in the experiment with HCC 2998, 21.8 µM (inactive); in the experiment with HCT-116 it was 18.9 µM (inactive); with HCT-15 it was 23.6 µM. The GI50 in the experiment on HOP-62 is 26.7 µM (inactive); in the experiment with HT-29 it was 32.6 µM (inactive); in the experiment on IGROV-1, 23 µM (inactive); in the experiment on NCI-H23, 20.2 µM (inactive); with NCI-H522, 18.8 µM (inactive); in the experiment with OVCAR-3 it was 20.1 µM (inactive). Besides, the GI50 in the experiment with OVCAR-4 was 22.8 µM (inactive); in the experiment on OVCAR-5, 32.3 µM (inactive); with RPMI-8226, 19.2 µM (inactive); with SNB-19, 20.5 µM (inactive).

As for `O=C1[C@H]2ON(c3ccccc3)C(c3ccc(Cl)cc3)[C@H]2C(=O)N1c1ccc(Cc2ccc(N3C(=O)[C@@H]4ON(c5ccccc5)C(c5ccc(Cl)cc5)[C@@H]4C3=O)cc2)cc1` (stereo not given in full), the GI50 with CCRF-CEM was > 100 µM (inactive); with DLD-1, > 100 µM (inactive); in the experiment with DMS-273, > 100 µM (inactive); with HCC 2998, > 100 µM (inactive); in the experiment with HCT-116, > 100 µM (inactive); in the experiment with HCT-15, greater than 100 µM. Also, the GI50 in the experiment on HOP-62, in the experiment with HT-29, in the experiment with IGROV-1, in the experiment with NCI-H23, in the experiment with NCI-H522 and in the experiment on OVCAR-3 was > 100 µM (inactive) throughout. For the same compound, the GI50 in the experiment with OVCAR-4, in the experiment on OVCAR-5, in the experiment on RPMI-8226 and in the experiment on SNB-19 was > 100 µM (inactive) throughout.

In the case of `CS(=O)(=O)c1c(N)c2nc(Cl)cn2c2nc3ccccc3nc12`, the GI50 is > 100 µM (inactive) with CCRF-CEM; > 100 µM (inactive) in the experiment with DLD-1; > 100 µM (inactive) with DMS-273; > 100 µM (inactive) in the experiment with HCC 2998; > 100 µM (inactive) in the experiment on HCT-116; greater than 100 µM with HCT-15. Also, the GI50 in the experiment on HOP-62 was > 100 µM (inactive); in the experiment with HT-29, > 100 µM (inactive); in the experiment on IGROV-1, > 100 µM (inactive); with NCI-H23 it was 68.9 µM (inactive); in the experiment on NCI-H522, 48 µM (inactive); with OVCAR-3 it was > 100 µM (inactive). In addition, the GI50 with OVCAR-4, with OVCAR-5, in the experiment on RPMI-8226 and in the experiment with SNB-19 was > 100 µM (inactive) throughout.
